Experimental data: patent US9233989B2, “Sila analogs of oxazolidinone derivatives and synthesis thereof” (Council of Scientific & Industrial Research, priority 2011, dated 2016)
Values after ≈ are worked out from the molar mass of the structure shown.

Tests used:
E.faecalis ATCC 19433 = assay: MIC by microbroth dilution method; type: cell-based
E.faecium 6A VRE = assay: MIC by microbroth dilution method; type: cell-based
E.faecium ATCC 49224 = assay: MIC by microbroth dilution method; type: cell-based
E.faecium ATCC 3567 = assay: MIC by microbroth dilution method; type: cell-based
MRSA 562 = assay: MIC by microbroth dilution method; type: cell-based, S. aureus
MRSA 0-2657 = assay: MIC by microbroth dilution method; type: cell-based, S. aureus
S.aureus ATCC 29213 = assay: MIC by microbroth dilution method; type: cell-based
MRSA 252 BAA 1720 = assay: MIC by microbroth dilution method; type: cell-based, S. aureus
E.faecium 06076 VRE = assay: MIC by microbroth dilution method; type: cell-based
[1] = tested on: S.aureus ATCC 49775 PVL + ve; type: cell-based
E.faecium ATCC 35667 = assay: MIC by microbroth dilution method; type: cell-based
S.epidermidis ATCC 12228 = assay: MIC by microbroth dilution method; type: cell-based
S.epidermidis ATCC 14990 = assay: MIC by microbroth dilution method; type: cell-based
E.faecalis ATCC 29212 = assay: MIC by microbroth dilution method; type: cell-based
MRSA ATCC BAA 39 = assay: MIC by microbroth dilution method; type: cell-based, S. aureus
E.coli 7632 = assay: MIC by microbroth dilution method; type: cell-based
[2] = tested on: S.aureus ATCC 700699 Mu50; assay: MIC by microbroth dilution method; type: cell-based
E.faecalis SP 346 VRE = assay: MIC by microbroth dilution method; type: cell-based
MRSA DB 00026 = assay: MIC by microbroth dilution method; type: cell-based, S. aureus
E.faecium ATCC 19434 = assay: MIC by microbroth dilution method; type: cell-based
E.faecium 134 VRE = assay: MIC by microbroth dilution method; type: cell-based
S.aureus2 (PVL + ve) = type: cell-based, S. aureus
[3] = tested on: S.aureus ATCC Newman 25904; assay: MIC by microbroth dilution method; type: cell-based
MRSA ATCC 43300 = assay: MIC by microbroth dilution method; type: cell-based, S. aureus
[4] = tested on: S.aureus 13709 LNZ mutant; type: cell-based
S.aureus DB00026 = assay: MIC by microbroth dilution method; type: cell-based
MRSE ATCC 35984 = assay: MIC by microbroth dilution method; type: cell-based, S. epidermidis
S.epidermis St 358 = assay: MIC by microbroth dilution method; type: cell-based, S. epidermidis
[5] = tested on: Mycobacterium tuberculosis H37Rv; assay: Anti-TB activity, colorimetric resazurin microtiter assay; type: cell-based; details: for MIC: Mycobacterium tuberculosis, H37RV, read-out: MIC, Minimum Inhibitory Concentration (90%)
[6] = tested on: E.faecalis ATCC 51299(VRE&HLAR); assay: MIC by microbroth dilution method; type: cell-based
MRSE ATCC 35983 = assay: MIC by microbroth dilution method; type: cell-based, S. epidermidis
[7] = tested on: S.aureus ATCC 13709 Smith; assay: MIC by microbroth dilution method; type: cell-based

SMILES	MIC (E.faecalis ATCC 19433) [µg/mL]	MIC (E.faecium 6A VRE) [µg/mL]	MIC (E.faecium ATCC 49224) [µg/mL]	MIC (E.faecium ATCC 3567) [µg/mL]	MIC (MRSA 562) [µg/mL]	MIC (MRSA 0-2657) [µg/mL]	MIC (S.aureus ATCC 29213) [µg/mL]	MIC (MRSA 252 BAA 1720) [µg/mL]	MIC (E.faecium 06076 VRE) [µg/mL]	MIC [1] [µg/mL]	MIC (E.faecium ATCC 35667) [µg/mL]	MIC (S.epidermidis ATCC 12228) [µg/mL]	MIC (S.epidermidis ATCC 14990) [µg/mL]	MIC (E.faecalis ATCC 29212) [µg/mL]	MIC (MRSA ATCC BAA 39) [µg/mL]	MIC (E.coli 7632) [µg/mL]	MIC [2] [µg/mL]	MIC (E.faecalis SP 346 VRE) [µg/mL]	MIC (MRSA DB 00026) [µg/mL]	MIC (E.faecium ATCC 19434) [µg/mL]	also measured
CC(=O)NC[C@H]1CN(c2ccc(N3CC[Si](C)(C)CC3)c(F)c2)C(=O)O1 [NDS-10024, (S)—N-((3-(4-(4,4-dimethyl-1,4-azasilinan-1-yl)-3-fluorophenyl)-2-oxooxazolidin-5-yl)methyl)acetamide]	16 (≈ 42.2 µM)	16 (≈ 42.2 µM)	8 (≈ 21.1 µM)	16 (≈ 42.2 µM)	16 (≈ 42.2 µM)	8 (≈ 21.1 µM)	16 (≈ 42.2 µM)	16 (≈ 42.2 µM)	16 (≈ 42.2 µM)	16 (≈ 42.2 µM)	8 (≈ 21.1 µM)	8 (≈ 21.1 µM)	8 (≈ 21.1 µM)	16 (≈ 42.2 µM)	16 (≈ 42.2 µM)	> 32	8 (≈ 21.1 µM)	16 (≈ 42.2 µM)	16 (≈ 42.2 µM)	16 (≈ 42.2 µM)	MIC (E.faecium 134 VRE): 16 µg/mL (≈ 42.2 µM); MIC (S.aureus2 (PVL + ve)): 16 µg/mL (≈ 42.2 µM); MIC [3]: 16 µg/mL (≈ 42.2 µM); MIC (MRSA ATCC 43300): 16 µg/mL (≈ 42.2 µM); MIC [4]: > 16 µg/mL; MIC (S.aureus DB00026): 16 µg/mL (≈ 42.2 µM); MIC (MRSE ATCC 35984): 8 µg/mL (≈ 21.1 µM); MIC (S.epidermis St 358): 8 µg/mL (≈ 21.1 µM); anti-tubercular activity (in words) ([5]; Mycobacterium tuberculosis H37Rv): good anti-tubercular activity; MIC [5]: 6.25 µg/mL (≈ 16.5 µM); MIC [6]: 16 µg/mL (≈ 42.2 µM); MIC (MRSE ATCC 35983): 8 µg/mL (≈ 21.1 µM); MIC [7]: 16 µg/mL (≈ 42.2 µM)
C[Si]1(C)CCN(c2ccc(N3C[C@H](CO)OC3=O)cc2F)CC1 [NDS-10059, (R)-3-(4-(4,4-dimethyl-1,4-azasilinan-1-yl)-3-fluorophenyl)-5-(hydroxymethyl)oxazolidin-2-one]	> 32	> 32	> 32	> 32	> 32	32 (≈ 94.5 µM)	> 32	> 32	> 32	32 (≈ 94.5 µM)	> 32	> 32	32 (≈ 94.5 µM)	32 (≈ 94.5 µM)	> 32	32 (≈ 94.5 µM)	> 32	32 (≈ 94.5 µM)	> 32	32 (≈ 94.5 µM)	MIC (E.faecium 134 VRE): 32 µg/mL (≈ 94.5 µM); MIC (S.aureus2 (PVL + ve)): > 32 µg/mL; MIC [3]: > 32 µg/mL; MIC (MRSA ATCC 43300): > 32 µg/mL; MIC [4]: > 32 µg/mL; MIC (S.aureus DB00026): > 32 µg/mL; MIC (MRSE ATCC 35984): 32 µg/mL (≈ 94.5 µM); MIC (S.epidermis St 358): 32 µg/mL (≈ 94.5 µM); MIC [5]: 100 µg/mL (≈ 295 µM); MIC [6]: 32 µg/mL (≈ 94.5 µM); MIC (MRSE ATCC 35983): > 32 µg/mL; MIC [7]: > 32 µg/mL
COC(=O)NC[C@H]1CN(c2cc(F)c(N3CC[Si](C)(C)CC3)c(F)c2)C(=O)O1 [NDS-10053, (S)-methyl(3-(4-(4,4-dimethyl-1,4-azasilinan-1-yl)-3,5-difluorophenyl)-2-oxooxazolidin-5-yl)methylcarbamate]	32 (≈ 77.4 µM)	4 (≈ 9.67 µM)	32 (≈ 77.4 µM)	16 (≈ 38.7 µM)	16 (≈ 38.7 µM)	8 (≈ 19.3 µM)	16 (≈ 38.7 µM)	8 (≈ 19.3 µM)	> 32	16 (≈ 38.7 µM)	8 (≈ 19.3 µM)	8 (≈ 19.3 µM)	8 (≈ 19.3 µM)	32 (≈ 77.4 µM)	8 (≈ 19.3 µM)	> 32	8 (≈ 19.3 µM)	32 (≈ 77.4 µM)	32 (≈ 77.4 µM)	16 (≈ 38.7 µM)	MIC (E.faecium 134 VRE): 32 µg/mL (≈ 77.4 µM); MIC (S.aureus2 (PVL + ve)): 16 µg/mL (≈ 38.7 µM); MIC [3]: 16 µg/mL (≈ 38.7 µM); MIC (MRSA ATCC 43300): 16 µg/mL (≈ 38.7 µM); MIC [4]: > 32 µg/mL; MIC (S.aureus DB00026): 16 µg/mL (≈ 38.7 µM); MIC (MRSE ATCC 35984): 8 µg/mL (≈ 19.3 µM); MIC (S.epidermis St 358): 16 µg/mL (≈ 38.7 µM); MIC [5]: 50 µg/mL (≈ 121 µM); MIC [6]: 16 µg/mL (≈ 38.7 µM); MIC (MRSE ATCC 35983): 32 µg/mL (≈ 77.4 µM); MIC [7]: 16 µg/mL (≈ 38.7 µM)
